Data taken from BindingDB's records for doi:10.3109/14756360903179385 (University of Peshawar, 2010).
pIC50: −log10 of the molar value.

Molecular target: Urease (Canavalia ensiformis, UniProt P07374)
Test: Urease Inhibition Assay
Details: pH 6.8; 30 °C
Method: Reaction mixtures comprising 25 μL of enzyme (jack bean urease) solution and 55 μL of buffer containing 100 mM urea were incubated with 5 μL of test compound (0.5 mM) at 30°C for 15 min in 96-well plates. Urease activity was determined by measuring the ammonia production using the indophenol method, as described by Weatherburn11. Briefly, 45 μL of each phenol reagent (1% (w/v) phenol and 0.005% (w/v) sodium nitroprussside) and 70 μL of alkali reagent (0.5% (w/v) NaOH and 0.1% active chloride, NaOCl) were added to each well. The increasing absorbanceat 630 nm was measured after 50 min, using a microplate reader (Molecular Devices, Sunnyvale, CA, USA). All reactions were performed in triplicate in a final volume of 200 μL. The results (change in absorbance per min) were processed using SoftMax Pro software (Molecular Devices). The entire assay was performed at pH 6.8.

Chain of Urease (P07374 whole entry): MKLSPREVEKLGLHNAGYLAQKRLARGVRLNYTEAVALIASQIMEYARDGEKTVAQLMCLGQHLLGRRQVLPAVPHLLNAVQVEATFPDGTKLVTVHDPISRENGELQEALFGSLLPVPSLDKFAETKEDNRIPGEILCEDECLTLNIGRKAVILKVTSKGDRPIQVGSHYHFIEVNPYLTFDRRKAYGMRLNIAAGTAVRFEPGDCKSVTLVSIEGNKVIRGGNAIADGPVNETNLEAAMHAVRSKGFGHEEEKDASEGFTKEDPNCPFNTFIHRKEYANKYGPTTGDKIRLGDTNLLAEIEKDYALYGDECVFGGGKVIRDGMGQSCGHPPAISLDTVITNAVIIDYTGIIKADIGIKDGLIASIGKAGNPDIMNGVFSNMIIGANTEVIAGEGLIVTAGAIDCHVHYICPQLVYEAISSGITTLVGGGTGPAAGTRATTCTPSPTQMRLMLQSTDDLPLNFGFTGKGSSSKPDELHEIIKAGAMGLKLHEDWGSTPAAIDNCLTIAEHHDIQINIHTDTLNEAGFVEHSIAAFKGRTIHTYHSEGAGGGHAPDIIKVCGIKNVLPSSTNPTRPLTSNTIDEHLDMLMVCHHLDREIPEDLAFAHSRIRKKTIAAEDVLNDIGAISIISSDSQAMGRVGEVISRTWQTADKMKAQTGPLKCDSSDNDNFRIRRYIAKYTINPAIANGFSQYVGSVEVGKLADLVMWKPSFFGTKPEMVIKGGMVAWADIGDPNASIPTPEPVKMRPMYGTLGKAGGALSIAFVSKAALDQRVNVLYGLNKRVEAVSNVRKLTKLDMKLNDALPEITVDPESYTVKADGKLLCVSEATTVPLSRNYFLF

O=c1c2cc(O)ccc2oc2cc(O)cc(O)c12 [1,3,7-trihydroxy-9H-xanthen-9-one]
pIC50: 3.86

O=c1c2cccc(O)c2oc2c(O)c(O)ccc12 [US9114126, MB5]
pIC50: 4.42

CCCCCCCCCCCCCCCCCCCCCCCCOC(=O)C=Cc1ccc(O)c(O)c1 [Tetracosyl 3-(3,4-dihydroxyphenyl) acrylate (2)]
pIC50: 4.68
